The values that follow come from article PMC4413647, “Simultaneous targeting of androgen receptor (AR) and MAPK-interacting kinases (MNKs) by novel retinamides inhibits growth of human prostate cancer cell lines” (Oncotarget, 2014).

Where two headings read alike, the source gives them in different places.

For orientation: GI50 means the concentration giving 50% growth inhibition.

In one assay the test system is PCa cells. As to the kind of experiment: MTT cell viability in PCa cells (LNCaP, PC-3, C4-2B, 22Rv1). It counts as cell-based, human. The conditions noted are these: Homo sapiens, range over PCa cell lines. Here is the method: (§1) Cell proliferation assay was performed as described previously. For cell growth experiment, cells were treated with the NRs for 7 days. MTT assay was performed at the end of the experiment. Calculations of combination indices were done using the Calcusyn program (Biosoft, Cambridge, United Kingdom). For colony formation assay, cells were plated 1000 per well in complete media and allowed to adhere for 24 h. The next day cells were treated with indicated compounds (5 μM). After 24 h compound containing media were removed, and cells were allowed to form colonies in complete media. Approximately 2 weeks later the colonies were fixed, stained with 0.5% crystal violet (sigma) for 30 min and counted manually. Results represent the mean ± standard deviation of three independent experiments.

The test system of assay [1] is PC-3 cells. Put plainly: Boyden chamber matrigel invasion assay. The class given is cell-based, human. The conditions noted are these: PC-3, 5 μM, 24 h. The method, then: Figure 5 Anti-migratory and anti-invasive potential of NRs (A) Effect of NRs treatment (5 μmol/L) on PC-3 cell migration was assessed by wound healing assay after 24 h of wound formation. Representative photomicrographs of initial and final wounds are shown at 100x magnification. (B) Effect of NRs on PC-3 cell invasion was evaluated by transwell migration assay. PC-3 cells were seeded on matrigel coated boyden chamber and treated with NRs (5 μmol/L, 24 h). Photographs represent the extent of cell invasion in each of the treated cells. (C) Western blot analysis of the effect of NRs on the expression of cadherins in PC-3 cells. Cells were treated with indicated compound 20 μmol/L for 24 h.
The invasion assay in PC-3 cells was performed using Matrigel (BD Biosciences, Bedford, MA, USA)-coated transwell cell culture chambers (8 μm pore size, EMD Millipore, Temecula, CA, USA) as described previously (43). Briefly, PC-3 cells (5 × 10^4 cells/well) were cultured in the upper chamber of the transwell insert for 24 h in serum-free RPMI-1640 medium. The cells were then treated with 5 μM of indicated compounds for 24 h. RPMI-1640 medium containing 10% FBS was placed in the lower chamber. At the end of incubation, the top surface of the non-migrated cells were scraped gently with cotton swabs and the cells on the lower surface of the membrane (migrated cells) were fixed for 15 min with cold methanol and stained with crystal violet. Cells that had migrated to the bottom of the membrane were visualized and counted using an inverted microscope. For each replicate (n = 3), cells in three randomly selected fields were counted and averaged.

The test system of the next assay is Bax, cleaved PARP-1. Put plainly: Western blot of Bax and cleaved PARP-1 in PCa cells. The class given is cell-based, human. The conditions noted are these: 20 μM, 24 h, among the lead NRs. Here is the method: Figure 4 Effect of NRs on cell cycle and apoptosis (A) LNCaP cells treated with 5 μM of NRs and other compounds for 24 h were stained with PI and analysed with a FACS calibur flow cytometer. (B) Total cell lysates from PCa cells treated with 20 μM of NRs were separated by SDS-PAGE and probed with cyclin D1 and B antibodies. […] (C) LNCaP cells were treated with indicated compounds (5 μmol/L) for 24 h and apoptosis induction was examined by oligonucleosomal fragmentation. Data are shown relative to vehicle treated control and the bars are means of three replicate determinations plus standard deviations. *, P< 0.01; ♣, P<0.05 compared with vehicle treated control. (D) PCa cells as indicated were seeded in 24 well plate, and treated with 5 μmol/L of NRs the subsequent day. After 24 h the plates were analyzed for apoptotic and viable cells using acridine orange/ethidium bromide staining. (E) Western blot analysis of apoptosis associated Bax and cPARP in PCa cells treated with NRs (20 μmol/L) for 24 h. (F) Apoptosis induction in LNCaP cells treated with 5 μmol/L of VNLG-147 and -152 in the presence or absence of ZVAD (5 μmol/L) was assessed by oligonucleosomal fragmentation after 24 h incubation. *, P< 0.05 compared with vehicle treated control. […]
For orientation: In western blotting, separated proteins are transferred to a membrane and probed.

The subject of assay [2] is PC-3 cells. As to the kind of experiment: Wound healing migration assay. It counts as cell-based, human. Particulars: 5 μM, 24 h. The method, then:
Figure 5 Anti-migratory and anti-invasive potential of NRs (A) Effect of NRs treatment (5 μmol/L) on PC-3 cell migration was assessed by wound healing assay after 24 h of wound formation. Representative photomicrographs of initial and final wounds are shown at 100x magnification. (B) Effect of NRs on PC-3 cell invasion was evaluated by transwell migration assay. PC-3 cells were seeded on matrigel coated boyden chamber and treated with NRs (5 μmol/L, 24 h). Photographs represent the extent of cell invasion in each of the treated cells. (C) Western blot analysis of the effect of NRs on the expression of cadherins in PC-3 cells. Cells were treated with indicated compound 20 μmol/L for 24 h. […] For wound healing assay highly metastatic PC-3 cells were plated in a 24 well plate at a seeding density of 5 × 10^5 cells/ well and allowed to form a confluent monolayer for 24 h. Cells were made dormant by pretreating with 0.5 μmol/L mitomycin C for 2 h to ensure that wounds are filled due to cell migration and not by cell proliferation. Subsequently, the monolayer was scratched with a pipette tip, washed with media to remove floating cells, and photographed (time 0 h). Cells were then treated with indicated compounds (5 μM) and the experiment was terminated as soon as wound was completely filled in vehicle treated controls. Cells were then photographed again using Nikon TE2000 microscope at three randomly selected sites per well [43].

The subject of the next assay is 22Rv1 cells. As to the kind of experiment: MTT cell proliferation assay, 7 d, 22Rv1. Particulars: Homo sapiens, 22Rv1, 168 h, 7 d treatment. The class given is cell-based.
Excerpt: (§2) Androgen-dependent (LNCaP), androgen-independent (PC-3) and castration resistant (C4-2B and 22Rv1) human prostate carcinoma cells were procured from American Type Culture Collection, Manassas, VA, USA and maintained in RPMI 1640 media (Gibco-Life Technologies, Grand Island, NY, USA) supplemented with 10% fetal bovine serum and 1% penicillin/streptomycin. […] Immortalized untransformed prostate epithelial cells, PWR1E from American Type Culture Collection were maintained in serum-free Keratinocyte media (Gibco) supplemented with epidermal growth factor and bovine pituitary extract. All cell lines were maintained in a 37 °C/5% CO2 humidified atmosphere.
as §1
(In general: Tetrazolium dyes change colour on reduction, which living cells bring about.)

The subject of assay [3] is PC-3 cells. Put plainly: MTT cell proliferation assay, 7 d, PC-3. It counts as cell-based. The conditions noted are these: Homo sapiens, PC-3, 168 h, 7 d treatment.
Excerpt: as §2, §1

Another assay has as its system PWR-1E cells. Put plainly: MTT cell proliferation assay, 7 d, PWR-1E. Particulars: Homo sapiens, 168 h, immortalized untransformed prostate cells, 7 d treatment. The class given is cell-based.
Excerpt: as §2, §1

Another assay deals with MR49F cells. As to the kind of experiment: MTT growth inhibition in Enzalutamide resistant MR49F cells. The class given is cell-based, human. The conditions noted are these: Homo sapiens, MR49F; read-out: GI50 MR49F (Figure 2C). The method, then: Figure 2 Effect of NRs on PCa cell growth and colony formation (A) Representative photographs of colonies formed in PCa cells at 14th day after initial treatment with specified compounds (5 μmol/L). Colonies were fixed with methanol and stained with crystal violet. (B) Data represents the mean ± S.E from three independent experiments. *, P< 0.05; ♣, P<0.01 compared to vehicle treated control. […] NRs that had promising inhibitory effect on cell proliferation on LNCaP cells were tested for their growth inhibitory effect in MR49F cells in comparison with Casodex and Abiraterone acetate by MTT assay.
as §2, §1

The test system of the next assay is LNCaP cells. As to the kind of experiment: MTT cell proliferation assay, 7 d, LNCaP. Particulars: Homo sapiens, LNCaP, 168 h, 7 d treatment. It counts as cell-based, human.
Excerpt: as §2, §1

In another assay the test system is C4-2B cells. Put plainly: MTT cell proliferation assay, 7 d, C4-2B. It counts as cell-based. Particulars: Homo sapiens, 168 h, 7 d treatment.
Excerpt: as §2, §1

With `CC1=C(/C=C/C(C)=C/C=C/C(C)=C/C(=O)Nc2ccccc2O)C(C)(C)CCC1n1ccnc1` (centres unmarked) [VNLG-147], the GI50 is 1500 to 5500 nM in the assay on PCa cells; 2040 nM in the assay on 22Rv1 cells; 2950 nM in the assay on PC-3 cells [3]; 71500 nM with PWR-1E cells; 4260 nM in the assay with MR49F cells; 1860 nM in the assay with LNCaP cells (read-out: GI50 LNCaP). In addition, the GI50 in the assay on LNCaP cells (DHT induced, read-out: GI50 LNCaP, DHT induced) came out at 1410 nM; in the assay with C4-2B cells it was 2660 nM. In addition, the “percentage of cell invasion compared to control” value with PC-3 cells [1] was 33. In addition, the “efficacy in inducing PARP cleavage and/or increasing Bax expression” value in the assay on Bax, cleaved PARP-1 is reported as “greater efficacies”. Further, in the assay on PC-3 cells [2], the “PC-3 cell migration to the denuded zone” value is “potentially suppressed”.
